For series [1], the system named is 26 liver cancer cell lines. The series is described as follows: Cell proliferation assay (Alamar Blue), summary over liver cancer lines. The format is cell-based. The procedure:
1. Instruments and Materials • Thermo 311 CO2 incubator; Haier biosafety cabinet; Molecular Devices microplate reader; Xiangyi brand L530 desktop low speed centrifuge; Olympus IX51 inverted fluorescence microscope, DMEM, RPMI 1640, MEM, DMEM/F12 1:1 medium, Fetal bovine serum, 0.25% trypsin solution, phosphate buffer (Thermo Fisher Shanghai Co., Ltd.); sigma dimethyl sulfoxide (DMSO), resazurin; 54 commercial tumor cell lines (including 26 liver cancer cell lines). Experimental drugs: compounds 1-12 and active drug Linifanib; chemotherapeutic drug Doxorubicin (HY-15142; Shanghai Qianyuan Biomedical Technology Co., Ltd.).
2. […] The proportion and quantity of passage were determined by experimental needs. The ratio of subculture of this cell line was generally 1:2^˜1:3. • 2.2 inhibition effect on the proliferation of different tumor cell lines • Cell test: 54 cell lines in logarithmic growth phase were inoculated in 96-well culture plates at 500^˜1×10^4/well (the optimal seeding density of each cell line was determined in pre-experiment), After incubating at 37° C. for 4 h in a 5% CO2 humidification incubator, added 10 μL of compounds 1-12 or Linifanib to each well, and tested 9 drug concentration gradients for each compound (diluted from the highest concentration of the test by 3.16 times). […]
For orientation: The colour change of resazurin is a common sign of viable cells or microbes.

Series [2] in a line: Liver homogenate incubation stability study. To be noted: for Residual intermediate: listed as intermediate. It counts as in vitro ADME, SD rat. How it is done: (§1) The purpose of this example was to investigate the stability of the precursor Linifanib-C12-AA5 (compound 8) and the intermediate Linifanib-C12-Asp (compound 12) in plasma, liver homogenate and spleen homogenate (precursor Linifanib-C12-AA5 metabolizes into the intermediates Linifanib-C12-Asp and Linifanib; the intermediate Linifanib-C12-Asp is further metabolized to form Linifanib), and the metabolites were analyzed quantitatively, and the stability of the incubation system was verified with positive drugs, providing references for compound drug evaluation.
(§2) Experimental Procedure • 1. Animal blood was collected, blood samples were placed in EDTA anticoagulation tubes, centrifuged at 3000 g for 15 min at 4° C., plasma was separated, and 2 blood samples were mixed in equal volumes; • 2. Weighed and dissolved a certain amount of Linifanib-C12-AA5/Linifanib-C12-Asp in DMSO:MeOH (2:8), prepared 200 μM mother liquor by purity, and added the compound to the plasma to a final concentration of 2 μg/mL. The organic ratio in the system was not more than 0.5%. • 3. Incubated in a 37° C. water bath and set the sampling points to 0, 0.5, 1, 2, 4, 6, and 8 h. At each sampling point, 100 μL of each sample was added to 300 μL of acetonitrile (with internal standard) for precipitation, centrifuged at 12,000 rpm for 5 min, and 200 μL of supernatant was taken for analysis by LC-MS/MS. • 4. Configured the standard curve to quantify Linifanib, Linifanib-C12-Asp and residual Linifanib-C12-AA5. • 2.2 Linifanib-C12-AA5 and Linifanib-C12-Asp liver/spleen homogenate incubation stability study protocol Test animal • Type: SD rat; Quantity: 2 • Sex: Male; Weight: 200-250 g
(§3) Experimental Procedure • 1. Biological analysis method: established the biological analysis method of the compound Linifanib-C12-Asp and Linifanib; • 2. Rat liver/spleen was taken on the day of the experiment, two pieces were cut and mixed, and homogenized with 4 volumes (1 g: 4 mL) phosphate buffer (pH 7.4), and the temperature was controlled to not exceed 10° C. in the homogenization process; quantitative detection of protein, and controlled liver and spleen protein concentration. • 3. Added the drug Linifanib-C12-AA5, Linifanib-C12-Asp to the liver/spleen homogenate to a concentration of 1000 ng/mL, the incubation volume was 1 mL, and controlled the concentration of the organic solvent in the incubation system to not exceed 0.5%. • 4. Incubated in a 37° C. water bath and took 100 μL of samples at 0, 0.5, 1, 2, 4, 6, and 8 h, respectively. After pre-processing the samples with a definite method, the LC-MS/MS analysis was carried out. • 5. Prepared a standard curve with blank liver/spleen homogenate to quantify Linifanib-C12-Asp and Linifanib. 3. Stability Study Results

A short description of series [3]: Spleen homogenate incubation stability study. The format is in vitro ADME, SD rat. The procedure: as §1, §2, §3
The conditions of series [4]: liver cancer patients, phase III; cited from earlier work.

pIC50: −log10 of the molar value. Several values for one entry are separate records, joined by “and”; a condition that tells them apart may be missing. Equal values may be shown once.

With `Cc1ccc(F)c(NC(=O)Nc2ccc(-c3cccc4c3c(N)nn4C(=O)CCCCCCCCCCCNC(=O)C[C@H](N)C(=O)N[C@@H](CCC(=O)N[C@@H](CCC(=O)N[C@@H](CCC(=O)N[C@@H](CCC(=O)O)C(=O)O)C(=O)O)C(=O)O)C(=O)O)cc2)c1` [Compound 8], the “difference of IC50 values versus Linifanib” value in series [1] (most of the liver cancer cell lines (15/26, 58%)) is listed as “more than 8 times”. Further, the “conversion of prodrug into active drug, liver versus spleen homogenate” value in series [2] (FIG. 5, comparison of liver and spleen homogenate) is given as “more specifically converted into an active drug in the liver”.
For the compound `Cc1ccc(F)c(NC(=O)Nc2ccc(-c3cccc4c3c(N)nn4C(=O)CCCCCCCCCCCNC(=O)C[C@H](N)C(=O)O)cc2)c1` [Compound 12], the Residual intermediate in series [3] (first experiment, 1000 ng/mL added, 0 h, listed as intermediate) is 900 ng/mL and 1020 ng/mL; in series [3] (first experiment, 1000 ng/mL added, 0.5 h), 959 ng/mL; in series [3] (first experiment, 1000 ng/mL added, 2 h, listed as intermediate), 755 ng/mL and 681 ng/mL; in series [3] (first experiment, 1000 ng/mL added, 4 h, listed as intermediate) it was 610 ng/mL and 589 ng/mL; in series [3] (first experiment, 1000 ng/mL added, 6 h, listed as intermediate), 470 ng/mL and 467 ng/mL; in series [3] (first experiment, 1000 ng/mL added, 8 h, listed as intermediate) it was 499 ng/mL and 506 ng/mL. Besides, the Residual intermediate in series [3] (second experiment, 0 h, listed as intermediate) was 812 ng/mL and 844 ng/mL; in series [3] (second experiment, 0.5 h, listed as intermediate) it was 770 ng/mL and 744 ng/mL; in series [3] (second experiment, 6 h, listed as intermediate) it was 496 ng/mL and 483 ng/mL; in series [2] (liver homogenate, first experiment, 1000 ng/mL added, 0 h), 1130 ng/mL and 1260 ng/mL; in series [2] (liver homogenate, first experiment, 1000 ng/mL added, 0.5 h) it was 1000 ng/mL and 970 ng/mL; in series [2] (liver homogenate, first experiment, 1000 ng/mL added, 1 h), 1130 ng/mL and 946 ng/mL. In addition, the Residual intermediate in series [2] (liver homogenate, first experiment, 1000 ng/mL added, 2 h) was 1000 ng/mL and 602 ng/mL; in series [2] (liver homogenate, first experiment, 1000 ng/mL added, 4 h), 294 ng/mL and 456 ng/mL; in series [2] (liver homogenate, first experiment, 1000 ng/mL added, 6 h) it was 452 ng/mL and 226 ng/mL; in series [2] (liver homogenate, second experiment, 0 h) it was 649 ng/mL and 634 ng/mL; in series [2] (liver homogenate, second experiment, 0.5 h), 452 ng/mL and 469 ng/mL; in series [2] (liver homogenate, second experiment, 6 h), 309 ng/mL and 340 ng/mL. The “conversion into Linifanib in liver homogenate” value in series [2] (liver homogenate) is recorded as “can be rapidly converted into Linifanib”.
One may read the pIC50 as −log10 of the IC50, conventionally taken in molar units. A higher pIC50 goes with a low IC50. Turning to `Cc1ccc(F)c(NC(=O)Nc2ccc(-c3cccc4[nH]nc(N)c34)cc2)c1` [Linifanib, reference compound], the pIC50 in series [1] (nearly half of the liver cancer cell lines (12/26, 46%), moderately sensitive) is over 5.30. The “toxicity and side effects” value in series [4] was “greater than Sorafenib”.
